The source of these data is PubChem BioAssay (NCI).

This test concerns MDA-MB-468 breast. Description: NCI-60 cell line screen, 48 h.

“And” between values parts separate entries of the source, which are not always exact repeats. Identical values can stand only once.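 A five-concentration, 48-hour dose response in 96-well plates underlies each endpoint, interpolated linearly between surrounding concentrations. GI50: concentration for 50% inhibition of growth. TGI: concentration producing complete growth inhibition.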

As to `Nc1nc(-c2ccc(Cl)cc2)nc2c1sc(=S)n2-c1ccccc1`, the GI50 is 4060 nM and the TGI was determined as 23200 nM. Consider `O=S(=O)(NCCCNc1cc(-c2cn(-c3ccccc3)nc2-c2cccc(O)c2)ccn1)c1ccc(F)cc1`, for which the GI50 was 2550 nM and the TGI was found to be 6730 nM. Consider `O=C(NCCCNc1cc(-c2cn(-c3ccccc3)nc2-c2cccc(O)c2)ccn1)Nc1cccc(C(F)(F)F)c1`, for which the GI50 was 1610 nM and the TGI turned out to be 6150 nM. For `O=C1/C(=C/c2ccccc2[N+](=O)[O-])COc2ccc(O)cc21` the same measures were 1100 nM and 4560 nM. For `COc1ccc(C2CC(c3ccc(N(C)C)cc3)=NN2c2ccc(S(N)(=O)=O)cc2)cc1` (stereo not drawn), in that order: 3280 nM and more than 100000 nM.

Regarding `COc1ccc(COc2cc3oc(=O)c4cc(C(C)O)ccc4c3cc2OC)cc1` (stereo not drawn), the GI50 was 9200 nM and the TGI was more than 100000 nM. As to `O=C(c1cc(Cc2n[nH]c(=O)c3ccccc23)ccc1F)N1CCN(C(=O)C2CC2)CC1`, the GI50 is 8290 nM and 13900 nM; the TGI was more than 100000 nM. Turning to `Nc1nc2ccccc2c2c1S(=O)(=O)c1ccc(Cl)cc1C2=O`, the GI50 was 735 nM and the TGI turned out to be 2150 nM. For `N#C/C(=C\c1cc2ccc(N3CCC3)cc2oc1=O)C(=O)N(CC(=O)O)CC(=O)O`, in that order: more than 100000 nM and more than 100000 nM. For `COC1=C(OC)C(=O)C(CCCCCCCCCCO)=C(C)C1=O` the same measures were 1660 nM and 3760 nM. With `CC1(C)[C@H](O)[C@H](F)C[C@@]2(C)Oc3ccc(C(=O)Nc4ccc5c(c4)NC(=O)C54CCN(CCCCC#N)CC4)cc3C[C@H]12`, the GI50 is 65.4 nM and 128 nM; the TGI was found to be 10700 nM. With `O=C1c2ccccc2C(=O)c2c1cc1c(c2[N+](=O)[O-])OCO1`, the GI50 is 1640 nM and the TGI came out at 4410 nM. For `COCCOCCOCCOCCOC(=O)OC[n+]1ccc(NC(=NCCCCCCOc2ccc(Cl)cc2)NC#N)cc1` the same measures were 1420 nM and 9990 nM.

For `COc1cc(-c2ncn(/C=C\c3nnco3)n2)cc(C(F)(F)F)c1`, the GI50 is 518 nM and the TGI was 3960 nM.

As to `Cc1ccc(-n2c(-c3cc4c([nH]c5ccccc54)c(-c4cccc(O)c4)n3)n[nH]c2=S)cc1`, the GI50 was 280 nM and the TGI came to 1180 nM. For `Clc1ccc([I+]c2ccc(Cl)cc2Cl)c(Cl)c1` the same measures were 1330 nM and 2810 nM.

As to `COc1ccc(/C=N\Nc2nc(SCC(C)C)nc(-c3ccc(OC)cc3)c2C#N)cc1`, the GI50 is 4360 nM and the TGI was 28000 nM. Take `NCc1ccc(-c2nc(-c3ccc(Cl)c(O)c3)c(-c3ccncc3)[nH]2)cc1`: the GI50 was more than 12200 nM and the TGI is more than 25000 nM. For `Fc1ccc2nc(-c3nc(-c4ccccc4)n4ccccc34)[nH]c2c1`, in that order: 1490 nM and 4020 nM. Take `Cn1c(C(=O)c2cccc3ccccc23)nc2ccccc21`: the GI50 is 5920 nM and the TGI is more than 100000 nM. For `C[C@H]1CN(C2COC2)CCN1c1ccc(Nc2cc(-c3ccnc(N4CCn5c(cc6c5CC(C)(C)C6)C4=O)c3CO)cn(C)c2=O)nc1`, in that order: 22900 nM and 89400 nM. For `C=CCN(CC=C)C(=O)[C@H](CC)[C@@H]1CC[C@@H](C)[C@@H]([C@H](C)[C@@H](O)[C@@H](C)C(=O)[C@H](CC)C2O[C@]3(C=C[C@@H](O)[C@]4(CC[C@@](C)([C@H]5CC[C@](O)(CC)[C@H](C)O5)O4)O3)[C@H](C)C[C@@H]2C)O1` (stereo partly drawn) the same measures were 1530 nM and 4840 nM.

For the compound `C[C@@H](NC(=O)c1ccc(F)cc1)c1ccc2c(c1)CCN2C(=O)C1CCOCC1`, the GI50 was more than 100000 nM and the TGI is more than 100000 nM. Turning to `COc1ccc(-c2c3c(N)c4c(nc3nc3c2c(C)nn3-c2ccccc2)CCCC4)cc1`, the GI50 was 2330 nM and the TGI worked out at 7670 nM. For `CCN(Cc1ccc(F)cc1)c1ccc(CO)c(C(F)(F)F)c1`, in that order: 165 nM and 499 nM. Regarding `N#CCNC(=O)c1ccc(-c2ccnc(Nc3ccc(N4CCOCC4)cc3)n2)cc1`, the GI50 is 2690 nM and 2350 nM; the TGI is > 10000 nM and 11900 nM.

`Clc1nc(Cl)c2ncn(CCOCCn3cnc4c(Cl)nc(Cl)nc43)c2n1`: the GI50 was 179 nM and the TGI was determined as 359 nM. For `CC(C)N(Cc1ccc(F)cc1)c1ccc(CO)c(Cl)c1` the same measures were 17 nM and 46.3 nM. For `S=C(NCc1ccc2c(c1)OCO2)N1CCN(c2ncnc3c2oc2ccccc23)CC1` the same measures were 456 nM and more than 100000 nM. With `N#Cc1c(NC(=O)c2ccccc2F)sc2c1CCCC2`, the GI50 was 5650 nM and the TGI was more than 25000 nM.

On to `N#Cc1cccc(Nc2ncc(-c3ccccc3)o2)c1`, for which the GI50 was 5290 nM and the TGI is more than 25000 nM. For `CC(=O)N(O)c1ccc(/C=C/c2ccccc2)cc1` the same measures were 68.6 nM and 932 nM. In the case of `COc1ccc(-c2[nH]c3ccccc3c2/C=C(\C#N)S(=O)(=O)c2ccccc2)cc1`, the TGI was determined as 1930 nM. Consider `O=c1[nH]c2ccccc2n1C1CCN(CCCC(c2ccc(F)cc2)c2ccc(F)cc2)CC1`, for which the GI50 was 1320 nM and 1500 nM; the TGI is 2830 nM and 4460 nM.

With `CC1SC(c2ccc(Cl)cc2)N(CCc2cccs2)C1=O` (stereo not drawn), the GI50 is 1470 nM and the TGI was 3750 nM. As for `COC(=O)c1cc([N+](=O)[O-])cc([N+](=O)[O-])c1Cl`, the GI50 was 1220 nM and the TGI was determined as 2570 nM. For `COc1cc(C(=O)/C=C/c2c(C(F)(F)F)nc3ccccn23)cc(OC)c1OC`, in that order: 2120 nM and 4720 nM. Take `CC1CCN(CCOc2ccc(CNc3ccc4nc(CCC5CCCCC5)[nH]c4c3)cc2)CC1`: the GI50 was 1550 nM and the TGI came to 3250 nM.

Consider `c1ccc(C2CCCCC2)c(OCCCCCN2CCNCC2)c1`, for which the GI50 is 1770 nM and the TGI amounted to 4200 nM. For `CCn1ccnc1C(=O)/C=C/c1ccc(CC(=O)Nc2ccc(F)cc2)cc1` the same measures were 1990 nM and 4940 nM. `COc1cc2c(cc1NC(=O)C(Cl)Cl)-c1ccc(NC(=O)C(Cl)Cl)cc1C2`: the GI50 is 280 nM and the TGI was determined as 931 nM. For `C=CC(=O)N[C@@H](/C=C/C(=O)OCC)Cc1ccc(-c2cc(Cl)cc(Cl)c2)cc1` the same measures were 5170 nM and 48100 nM.

Regarding `COc1ccc(S(=O)(=O)N2CCNCC2)cc1OC`, the GI50 was more than 100000 nM and the TGI was more than 100000 nM.

Turning to `O=S(=O)(NCCCNc1nccc(-c2c(-c3ccc(F)cc3)nc3sccn23)n1)c1ccc(F)cc1`, the GI50 was 4550 nM and the TGI is more than 100000 nM. For `COc1ccc2c(c1)C(=O)c1c-2c(=O)n(CCCN(C)C)c2cc(OC)c(OC)cc12`, in that order: 1430 nM and 9920 nM. Regarding `C=CC[N+]1(CC)CCN=C1CCCCCCCCCCCCCCCCC` (stereo not drawn), the GI50 was 135 nM and the TGI stood at 538 nM. For `C=C1C(=O)O[C@H]2[C@H]1CC/C(COC(=O)NCc1c[nH]c3ccc(F)cc13)=C\CC[C@@]1(C)O[C@@H]21` the same measures were 1090 nM and 2910 nM.
